pIC50: −log10 of the molar value. Read-outs that look alike come from different tables or passages of the source.

One assay has as its system AsPC-1 cells. Put plainly: Cellular phospho-ERK assay, AsPC-1 cells (homozygous KRAS-G12D). The format is cell-based. Particulars: Homo sapiens, ASPC1, 2 h, KRAS-G12D, 2 hours, read-out: AsPC1 pERK IC50. Summed up: (§1)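 Cells were seeded overnight, then treated 2 h at 37° C with compound in a 10-point, 1:3 titration from 30 μM top final concentration. Lysates were assayed by AlphaLISA SureFire Ultra for p-ERK and total ERK. IC50 came from a 4-parameter logistic fit of the p-ERK/total ERK ratio.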

A further assay addresses KRAS-G12V (Homo sapiens, UniProt P01116, G12V). Description: SOS-catalyzed nucleotide exchange assay (Procedure A, TR-FRET), KRAS-G12V. Format: biochemical. As to conditions: nucleotide exchange, read-out: KRAS G12V GNE IC50. Summed up: (§2)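 Compounds (10-point, 3-fold) were preincubated 60 min at room temperature with a biotinylated RAS/Bodipy-GDP/Tb-streptavidin TR-FRET complex. Exchange was started with human SOS plus 3 mM GTP. RAS/SOS: G12C 3/40 nM, WT 1/40 nM, NRAS 1.25/40 nM (60 min); G12V 1.25/160 nM (90 min). The 520/495 ratio was fit four-parameter.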

A further assay deals with KRAS-G12D (Homo sapiens, UniProt P01116, G12D). Put plainly: SOS-catalyzed nucleotide exchange assay (Procedure A, TR-FRET), KRAS-G12D. Format: biochemical. Particulars: nucleotide exchange, read-out: KRAS G12D GNE IC50. Summed up:
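Signal ratio (520/495 nm, excitation 340 nm) reports Bodipy-GDP retention on biotinylated RAS after SOS-catalyzed exchange with 3 mM GTP. SOS was 40 nM, except 160 nM for G12V. Room-temperature exchange lasted 60 min (90 min for G12V), following a 60 min compound preincubation.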

Another assay concerns the target KRAS-WT (Homo sapiens, UniProt P01116). Put plainly: SOS-catalyzed nucleotide exchange assay (Procedure A, TR-FRET), KRAS-WT. The format is biochemical. Particulars: nucleotide exchange, read-out: KRAS WT GNE IC50. Summed up: as §2
Assay [1] deals with KRAS-G12C (C51S/C80L/C118S) (Homo sapiens, UniProt P01116, C118S/C51S/C80L/G12C). Description: SOS-catalyzed nucleotide exchange assay (Procedure A, TR-FRET), KRAS-G12C. The format is biochemical. As to conditions: nucleotide exchange, Procedure A; read-out: KRAS G12C GNE IC50. Summed up:
as §2

The target of the next assay is KRAS-G13D (Homo sapiens, UniProt P01116, G13D). Put plainly: SOS-catalyzed nucleotide exchange assay (Procedure A, TR-FRET), KRAS-G13D. The format is biochemical. Particulars: nucleotide exchange, Procedure A; read-out: KRAS G13D GNE IC50.
Sequence of KRAS-G13D (P01116 with tags, fused parts or gaps isoform P01116-2 G13D): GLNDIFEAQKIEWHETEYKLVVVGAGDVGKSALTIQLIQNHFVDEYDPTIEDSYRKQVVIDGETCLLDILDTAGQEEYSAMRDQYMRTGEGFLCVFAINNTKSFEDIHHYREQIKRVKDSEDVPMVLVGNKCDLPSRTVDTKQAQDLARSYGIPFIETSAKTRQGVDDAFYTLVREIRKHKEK
The next assay deals with MKN-1 cells. Put plainly: Cellular phospho-ERK assay, MKN-1 cells (amplified wild-type KRAS). The format is cell-based. Particulars: Homo sapiens, amplified wild-type KRAS, 2 hours, read-out: MKN1 pERK IC50. Summed up:
as §1

The next assay deals with PANC08.13 cells. Description: Cellular phospho-ERK assay, PANC08.13 cells (homozygous KRAS-G12D). Format: cell-based. As to conditions: Homo sapiens, read-out: PANC-08.13 pERK IC50. How it is done: Procedure for Cellular Phospho-ERK Assay in KRAS Wild Type and Mutant (G12D, G12V) Cell Lines
MKN-1 cells (JCRB JCRB0252) containing amplified wild-type KRAS, were cultured in growth medium that contains RPMI 1640-GlutaMAX™-I (ThermoFisher Scientific 61870) containing 10% heat inactivated fetal bovine serum (ThermoFisher Scientific 10091148), 1 mM sodium pyruvate and 10 mM HEPES. PANC08.13 cells (ATCC® CRL-2551™), containing homozygous KRAS-G12D activating mutation, were cultured in growth medium made of RPMI1640-GlutaMAX™-I (ThermoFisher Scientific 61870) containing 15% heat inactivated fetal bovine serum (ThermoFisher Scientific 10091148)). AsPC-1 cells (ATCC® CRL-1682™), containing homozygous KRAS-G12D activating mutation, were cultured in T150 flask in growth medium (RPMI medium 1640-GlutaMAX™-I (ThermoFisher Scientific 61870) containing 10% fetal bovine serum (ThermoFisher Scientific 10091148)). SW620 cells (ATCC® […]), containing homozygous KRAS-G12V activating mutation, were cultured in growth medium that contains RPMI 1640-GlutaMAX™-I (ThermoFisher Scientific 61870) containing 10% heat inactivated fetal bovine serum (ThermoFisher Scientific 10091148).
Cells for the assay were harvested in growth medium after TrypLE (ThermoFisher scientific 12604021) digestion and were seeded in a 384-well collagen coated cell culture plate (Corning 356702) at a density of 10,000-15,000 cells/20 μL/well, and incubated at 37° C., 5% CO2 overnight. The compound (with 10 mM stock concentration) dose-response titrations were prepared [30 μM final ERK detection assay concentration and 1:3 dilutions, 10-point dose response] and appropriate amounts (270 nL) of test compounds were dispensed in a 384-well intermediate plate using an Echo 550 liquid handler. 30 μL/well of RPMI medium 1640-GlutaMAX™—I was added to the intermediate plate and the contents of the intermediate plate (10 μL/well) were then transferred to the 384-well collagen coated cell culture plate, which was incubated at 37° C., 5% CO2 for 2 hours. After removal of medium from the collagen coated cell culture plate, cells were lysed in lysis buffer from Alpha SureFire® Ultra™ Multiplex p-ERK and total ERK assay kit (PerkinElmer MPSU-PTERK) containing Halt™ Protease and Phosphatase inhibitor cocktail (ThermoFisher Scientific 78446) at room temperature with constant shaking at 300 rpm for 30 minutes. The cell lysates were then transferred to an OptiPlate-384 plate (PerkinElmer 6005620), and the phosphorylation of ERK (p-ERK) and total ERK levels were detected by Alpha SureFire® Ultra™ Multiplex p-EEK kit and total ERK assay kit (PerkinElmer MPSU-PTERK) following the manufacturer's protocol. Assay plates were read on a En Vision Multimode Plate Reader (PerkinElmer), and the ratio of p-ERK vs. total ERK in each well was used as the final readout. Dose response curves were analyzed using a 4-parameter logistic model to calculate IC50 values using Spotfire software.

Sequence of KRAS-G12V (P01116 with tags, fused parts or gaps isoform P01116-2 G12V): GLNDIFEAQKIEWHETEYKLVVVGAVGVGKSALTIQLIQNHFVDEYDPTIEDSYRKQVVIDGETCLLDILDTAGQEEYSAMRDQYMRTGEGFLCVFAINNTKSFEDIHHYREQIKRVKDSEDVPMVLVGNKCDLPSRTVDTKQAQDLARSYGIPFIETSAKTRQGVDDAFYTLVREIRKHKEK
Sequence of KRAS-G12C (C51S/C80L/C118S) (P01116 with tags, fused parts or gaps isoform P01116-2 G12C/C51S/C80L/C118S): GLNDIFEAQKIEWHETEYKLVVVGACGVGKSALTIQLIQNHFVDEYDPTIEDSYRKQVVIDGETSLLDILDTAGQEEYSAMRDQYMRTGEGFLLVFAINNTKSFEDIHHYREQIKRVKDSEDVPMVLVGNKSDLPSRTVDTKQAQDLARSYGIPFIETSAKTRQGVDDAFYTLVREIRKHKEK
Sequence of KRAS-G12D (P01116 with tags, fused parts or gaps isoform P01116-2 G12D): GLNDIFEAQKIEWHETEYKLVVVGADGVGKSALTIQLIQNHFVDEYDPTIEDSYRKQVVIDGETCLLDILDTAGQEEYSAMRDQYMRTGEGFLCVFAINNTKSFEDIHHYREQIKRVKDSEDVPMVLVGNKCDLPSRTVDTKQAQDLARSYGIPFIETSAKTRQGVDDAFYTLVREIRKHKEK
Sequence of KRAS-WT (P01116 with tags, fused parts or gaps isoform P01116-2): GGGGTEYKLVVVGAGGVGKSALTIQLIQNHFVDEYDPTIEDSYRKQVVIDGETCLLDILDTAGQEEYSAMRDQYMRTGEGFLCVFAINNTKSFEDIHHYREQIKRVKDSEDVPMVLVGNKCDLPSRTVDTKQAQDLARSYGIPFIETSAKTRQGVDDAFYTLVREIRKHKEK

For `Cc1cc2[nH]ncc2c(-c2nccc3c4c(N5CCC[C@@](C)(O)C5)nc(OC[C@@]56CCCN5C[C@H](F)C6)nc4n(C)c23)c1C(F)(F)F` (single isomer, unassigned) [Ex-5], the pIC50 with AsPC-1 cells is 6.16; at KRAS-G12V it was 7.09; at KRAS-G12D, 7.21; at KRAS-WT, 7.00; in assay [1], 7.01; at KRAS-G13D, 7.03. Moreover, the pIC50 is 6.90 in the assay on MKN-1 cells and 6.72 with PANC08.13 cells (PANC-08-13, KRAS-G12D, 2 hours).
Turning to `Cn1c2nc(OC[C@@]34CCCN3C[C@H](F)C4)nc(N3CCOC[C@@](C)(O)C3)c2c2ccnc(-c3c(C(F)F)c(Cl)cc4[nH]nc(C#N)c34)c21` (single isomer, unassigned) [Ex-12], the pIC50 is 5.53 on KRAS-G12V; 5.67 at KRAS-G12D; 5.23 on KRAS-WT; 6.23 in assay [1]; 5.58 on KRAS-G13D; 5.22 in the assay on PANC08.13 cells (PANC-08-13, KRAS-G12D, 2 hours).
Turning to `Cc1cc2[nH]ncc2c(-c2nccc3c4c(N5CC6CCC(F)(C5)N6)nc(OC[C@@]56CCCN5C[C@H](F)C6)nc4n(C)c23)c1C(F)(F)F` (single isomer, unassigned) [Ex-22], the negative-log IC50 (pIC50) was 6.39 on KRAS-G12V; 5.61 on KRAS-G12D; 6.01 on KRAS-WT; 6.72 in assay [1]; 6.34 at KRAS-G13D; 5.45 in the assay with PANC08.13 cells (PANC-08-13, KRAS-G12D, 2 hours).
In the case of `Cc1cc2[nH]ncc2c(-c2nccc3c2sc2nc(OC[C@@]45CCCN4C[C@H](F)C5)nc(N4CCC[C@@](C)(O)C4)c23)c1C(F)(F)F` [Ex-128, (3R)-1-(2-(((2R, 7aS)-2-fluorotetra-hydro-1H-pyrrol-izin-7a(5H)-yl)meth-oxy)-8-(6-methyl-5-(trifluoromethyl)-1H-indazol-4-yl)-pyrido[4′,3′:4,5]thieno[2,3-d]pyr-imidin-4-yl)-3-methylpiperidin-3-ol], the negative logarithm of the IC50 (pIC50) in the assay with AsPC-1 cells was 6.18; on KRAS-G12V, 6.84; at KRAS-G12D it was 7.01; at KRAS-WT, 6.61; in assay [1] it was 6.99; on KRAS-G13D, 6.69. In addition, the pIC50 in the assay on MKN-1 cells is 6.67; in the assay with PANC08.13 cells (PANC-08-13, KRAS-G12D, 2 hours), 6.62.
Consider `C[C@@]1(O)COCCN(c2nc(OC[C@@]34CCCN3C[C@H](F)C4)nc3sc4c(-c5c(C(F)F)c(Cl)cc6[nH]ncc56)nccc4c23)C1` [Ex-133, (6S)-4-(8-(6-chloro-5-(difluoromethyl)-1H-indazol-4-yl)-2-(((2R,7aS)-2-fluoro-tetrahydro-1H-pyr-rolizin-7a(5H)-yl)-methoxy)pyrido [4′,3′:4,5]thieno [2,3-d]pyrimidin-4-yl)-6-methyl-1,4-oxazepan-6-ol], for which the pIC50 on KRAS-G12V was 6.89; at KRAS-G12D, 6.92; at KRAS-WT, 6.60; in assay [1], 7.33; at KRAS-G13D, 6.96; with PANC08.13 cells (PANC-08-13, 2 hours compound incubation) it was 6.55.
In the case of `Cn1c2nc(OC[C@@]34CCCN3C[C@H](F)C4)nc(N3CCOC[C@@](C)(O)C3)c2c2ccnc(-c3c(C(F)F)c(Cl)cc4[nH]ncc34)c21` (single isomer, unassigned) [Ex-11], the pIC50 with AsPC-1 cells was 5.92; at KRAS-G12V it was 6.90; at KRAS-G12D it was 7.07; on KRAS-WT, 6.80; in assay [1], 7.39; at KRAS-G13D it was 6.98. Further, the negative-log IC50 (pIC50) in the assay on PANC08.13 cells (PANC-08-13, KRAS-G12D, 2 hours) is 6.62.
Turning to `C[C@@]1(O)COCCN(c2nc(OC[C@@]34CCCN3C[C@H](F)C4)nc3sc4c(-c5ccc(F)c6sc(N)c(C#N)c56)cncc4c23)C1` [Ex-274, 2-amino-7-fluoro-4-(2-(((2R,7aS)-2-fluorotetrahydro-1H-pyrrolizin-7a(5H)-yl)methoxy)-4-((S)-6-hydroxy-6-methyl-1,4-oxazepan-4-yl)pyrido[3′,4′:4,5]thieno[2,3-d]pyrimidin-8-yl)benzo[b]thiophene-3-carbonitrile], the pIC50 was 6.40 at KRAS-G12V; 6.17 at KRAS-G12D; 6.48 on KRAS-WT; 6.92 in assay [1]; 7.06 at KRAS-G13D; 6.00 in the assay on PANC08.13 cells (PANC-08-13, KRAS-G12D, 2 hours).
On to `CCn1c2nc(OC[C@@]34CCCN3C[C@H](F)C4)nc(N3CCOC[C@@](C)(O)C3)c2c2ccnc(-c3c(C(F)(F)F)c(C)cc4[nH]ncc34)c21` [Ex-24, (6S)-4-(9-ethyl-2-(((2R,7aS)-2-fluorotetrahydro-1H-pyrrolizin-7a(5H)-yl)methoxy)-8-(6-methyl-5-(trifluoromethyl)-1H-indazol-4-yl)-9H-pyrido[4′,3′:4,5]pyrrolo[2,3-d]pyrimidin-4-yl)-6-methyl-1,4-oxazepan-6-ol], for which the pIC50 at KRAS-G12V was 6.31; on KRAS-G12D, 6.15; at KRAS-WT, 6.03; in assay [1] it was 6.65; at KRAS-G13D, 5.99; in the assay on PANC08.13 cells (PANC-08-13, KRAS-G12D, 2 hours), 6.13.
Turning to `Cc1cc2[nH]nc(C#N)c2c(-c2nccc3c4c(N5CCOC[C@@](C)(O)C5)nc(OC[C@@]56CCCN5C[C@H](F)C6)nc4n(C)c23)c1C(F)(F)F` (single isomer, unassigned) [Ex-4], the pIC50 at KRAS-G12V was 6.27; on KRAS-G12D, 6.47; on KRAS-WT, 6.25; in assay [1], 6.91; on KRAS-G13D, 6.37; in the assay on PANC08.13 cells (PANC-08-13, KRAS-G12D, 2 hours), 5.79.
With `Cc1cc2[nH]ncc2c(-c2nccc3c2oc2nc(OC[C@@]45CCCN4C[C@H](F)C5)nc(N4CCOC[C@@](C)(O)C4)c23)c1C(F)(F)F` [Ex-290, (6S)-4-(2-(((2R,7aS)-2-fluorotetrahydro-1H-pyrrolizin-7a(5H)-yl)methoxy)-8-(6-methyl-5-(trifluoromethyl)-1H-indazol-4-yl)pyrido[4′,3′:4,5]furo[2,3-d]pyrimidin-4-yl)-6-methyl-1,4-oxazepan-6-ol], the pIC50 at KRAS-G12V is 6.44; on KRAS-G12D, 6.21; on KRAS-WT it was 5.85; in assay [1], 6.76; on KRAS-G13D it was 5.99; with PANC08.13 cells (PANC-08-13, KRAS-G12D, 2 hours), 5.63.

For the origin of these results see patent US20260176289A1, “SMALL MOLECULE INHIBITORS OF KRAS PROTEINS” (Merck Sharp & Dohme LLC, priority 2022, published 2026).
